Counter-ions that a name gives are not always drawn. The source made the active and inactive calls. For most assays here, no stated cut-off is given here; in the data, actives have a measured EC50 and inactives only a lower limit.
Tests used:
cells = type: functional
[1] = inhibitors of firefly luciferase expression or activity, dose response, H4 neuroglioma cells, luminescence (AID 1990); type: functional, cell-based
[2] = Luminescence Cell-Based Dose Response HTS to Identify Inhibitors of 5'UTR Stem-Loop Driven Prion Protein mRNA Translation in H4 Neuroglioblastoma Cells. [Related pubchem assays: 1827 (Project Summary), 1813 (Primary HTS)]; type: functional
[3] = inhibitors of SNCA 5'UTR-driven reporter translation, confirmation, H4 neuroglioma cells, luminescence (AID 1988); type: functional, cell-based
Cytochrome P450 1A2 = target: T1, Cytochrome P450 1A2 (Homo sapiens, UniProt P05177);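 further: PubChem cytochrome P450 panel assay, CYP1A2 panel member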
T1 sequence (P05177 whole entry): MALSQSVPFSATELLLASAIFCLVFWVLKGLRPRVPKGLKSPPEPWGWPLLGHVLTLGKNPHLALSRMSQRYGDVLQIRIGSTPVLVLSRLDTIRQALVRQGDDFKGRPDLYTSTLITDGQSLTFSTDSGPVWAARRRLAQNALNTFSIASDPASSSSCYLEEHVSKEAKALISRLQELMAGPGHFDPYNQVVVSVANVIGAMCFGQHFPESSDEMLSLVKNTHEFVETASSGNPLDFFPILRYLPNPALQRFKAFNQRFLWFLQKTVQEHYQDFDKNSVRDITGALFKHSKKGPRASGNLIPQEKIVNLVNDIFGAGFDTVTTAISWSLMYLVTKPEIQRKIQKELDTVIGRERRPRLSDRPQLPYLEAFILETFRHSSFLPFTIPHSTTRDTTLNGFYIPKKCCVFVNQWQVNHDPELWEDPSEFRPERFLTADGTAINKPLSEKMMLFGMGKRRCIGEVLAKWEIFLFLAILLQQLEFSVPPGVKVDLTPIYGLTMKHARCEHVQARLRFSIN

Cytochrome P450 3A4 = Cytochrome P450 3A4 (Homo sapiens, UniProt P08684);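 further: CYP3A4 tested as one member of a cytochrome P450 panel screen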
Cytochrome P450 2C9 = Cytochrome P450 2C9 (Homo sapiens, UniProt P11712)
[4] = target: T2, Corticotropin-releasing factor receptor 2/Corticotropin-releasing factor-binding protein (Homo sapiens, UniProt P24387+Q13324); assay: Dose Response confirmation of uHTS hits for small molecule antagonists of the CRF-binding protein and CRF-R2 receptor complex.; type: functional; conditions: read-out: IC50_Mean
T2 sequence (Q13324 whole entry): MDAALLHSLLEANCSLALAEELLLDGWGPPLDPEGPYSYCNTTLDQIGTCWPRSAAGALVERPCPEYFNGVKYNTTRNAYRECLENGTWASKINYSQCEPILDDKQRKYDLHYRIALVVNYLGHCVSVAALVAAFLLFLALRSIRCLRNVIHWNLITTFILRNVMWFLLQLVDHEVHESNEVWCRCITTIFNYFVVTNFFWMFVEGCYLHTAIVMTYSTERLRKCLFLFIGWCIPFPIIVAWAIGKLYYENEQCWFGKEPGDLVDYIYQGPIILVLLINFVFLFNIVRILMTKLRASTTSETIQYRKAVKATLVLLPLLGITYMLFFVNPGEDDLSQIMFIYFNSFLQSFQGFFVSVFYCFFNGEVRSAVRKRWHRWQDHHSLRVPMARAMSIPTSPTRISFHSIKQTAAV
T2 sequence (P24387 whole entry): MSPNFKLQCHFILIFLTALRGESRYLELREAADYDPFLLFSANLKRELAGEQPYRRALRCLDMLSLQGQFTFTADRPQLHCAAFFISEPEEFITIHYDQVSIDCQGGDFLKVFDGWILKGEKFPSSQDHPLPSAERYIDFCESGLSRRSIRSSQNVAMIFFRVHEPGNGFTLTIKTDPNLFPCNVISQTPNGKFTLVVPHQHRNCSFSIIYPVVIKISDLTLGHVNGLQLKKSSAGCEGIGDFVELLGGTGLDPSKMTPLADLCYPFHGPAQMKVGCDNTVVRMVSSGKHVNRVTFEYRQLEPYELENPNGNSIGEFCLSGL

[5] = target: T2, Corticotropin-releasing factor receptor 2/Corticotropin-releasing factor-binding protein; assay: activators of CRF receptor 2 with binding protein – uHTS hits, confirmation (AID 602473); type: functional; conditions: read-out: EC50_Mean
[6] = target: T3, Heat shock factor protein 1 (Mus musculus, UniProt P38532); assay: inhibition of MG132-induced HSE-luciferase signal, confirmation, cell-based, NIH3T3, luminescence, dose retest (AID 2382); type: functional;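 further: NIH3T3 fibroblasts with HSF1-driven luciferase reporter stressed by proteasome inhibitor MG132; luminescence from HSF1-driven luciferase expression after 8 hours of MG132 stress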
T3 sequence (P38532 whole entry): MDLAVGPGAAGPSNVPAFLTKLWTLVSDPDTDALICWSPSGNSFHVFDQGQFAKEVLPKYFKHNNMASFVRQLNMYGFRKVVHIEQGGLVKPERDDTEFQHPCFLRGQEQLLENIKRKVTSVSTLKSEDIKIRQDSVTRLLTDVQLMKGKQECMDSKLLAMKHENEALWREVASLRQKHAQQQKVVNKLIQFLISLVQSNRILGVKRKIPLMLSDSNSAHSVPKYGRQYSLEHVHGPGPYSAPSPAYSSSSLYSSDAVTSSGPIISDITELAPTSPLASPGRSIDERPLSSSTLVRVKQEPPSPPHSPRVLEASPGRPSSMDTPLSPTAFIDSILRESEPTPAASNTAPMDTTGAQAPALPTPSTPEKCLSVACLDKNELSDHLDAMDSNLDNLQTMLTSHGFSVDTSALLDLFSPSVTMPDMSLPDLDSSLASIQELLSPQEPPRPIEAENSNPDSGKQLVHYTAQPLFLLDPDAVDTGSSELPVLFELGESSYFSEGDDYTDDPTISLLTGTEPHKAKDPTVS

[7] = inhibitors of intracellular T. cruzi replication, confirmation, NIH3T3 host cells, beta-gal luminescence (AID 2044); type: functional, cell-based;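 further: intracellular parasites grown in NIH/3T3 mouse fibroblasts as host cells; luminescent beta-galactosidase reporter signal from transgenic T. cruzi replicating inside host cells; inhibitors lower the luminescence signal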
[8] = cytotoxicity toward NIH3T3 fibroblasts, dose response, counter-screen, cell-based, ATP luminescence, mouse fibroblasts (AID 2010); type: functional;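 further: cells exposed to compound for about 90 hours before reading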
[9] = target: T4, RNA-binding protein pos-1 (Caenorhabditis elegans, UniProt G5EF15); assay: inhibitors of POS-1/mex-3 RNA binding, dose response, biochemical, fluorescence polarization (AID 1964);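 further: purified POS-1 fused to maltose binding protein made in E. coli; potency of compounds blocking POS-1 binding to fluorescent RNA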
T4 sequence (G5EF15 whole entry): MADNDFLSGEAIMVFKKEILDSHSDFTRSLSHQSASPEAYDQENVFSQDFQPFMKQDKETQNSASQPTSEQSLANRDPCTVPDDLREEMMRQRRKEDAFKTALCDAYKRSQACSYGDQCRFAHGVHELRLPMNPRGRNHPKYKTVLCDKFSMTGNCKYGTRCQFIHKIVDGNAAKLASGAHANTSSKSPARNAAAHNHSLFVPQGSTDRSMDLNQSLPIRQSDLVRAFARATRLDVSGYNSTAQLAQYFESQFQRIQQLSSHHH

[10] = target: T5, Zinc finger protein mex-5 (Caenorhabditis elegans, UniProt Q9XUB2); assay: MEX-5/TCR-2 RNA interaction inhibitors, dose response, biochemical, C. elegans, fluorescence polarization (AID 1960)
T5 sequence (Q9XUB2 whole entry): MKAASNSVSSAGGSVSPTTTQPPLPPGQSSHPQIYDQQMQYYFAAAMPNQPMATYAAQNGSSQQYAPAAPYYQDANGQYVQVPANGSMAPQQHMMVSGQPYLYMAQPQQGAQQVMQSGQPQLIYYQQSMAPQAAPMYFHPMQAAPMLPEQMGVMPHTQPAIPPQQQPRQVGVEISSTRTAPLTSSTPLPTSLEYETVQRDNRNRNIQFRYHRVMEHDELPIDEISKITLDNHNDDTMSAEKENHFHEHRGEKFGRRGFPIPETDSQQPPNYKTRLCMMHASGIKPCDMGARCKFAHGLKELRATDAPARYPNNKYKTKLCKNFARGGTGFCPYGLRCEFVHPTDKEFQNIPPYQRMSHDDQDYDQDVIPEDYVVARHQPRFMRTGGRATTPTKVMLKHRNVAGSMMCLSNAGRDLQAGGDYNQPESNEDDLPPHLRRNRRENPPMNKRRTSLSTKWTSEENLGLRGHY

Chain of Cytochrome P450 2C9 (P11712 whole entry): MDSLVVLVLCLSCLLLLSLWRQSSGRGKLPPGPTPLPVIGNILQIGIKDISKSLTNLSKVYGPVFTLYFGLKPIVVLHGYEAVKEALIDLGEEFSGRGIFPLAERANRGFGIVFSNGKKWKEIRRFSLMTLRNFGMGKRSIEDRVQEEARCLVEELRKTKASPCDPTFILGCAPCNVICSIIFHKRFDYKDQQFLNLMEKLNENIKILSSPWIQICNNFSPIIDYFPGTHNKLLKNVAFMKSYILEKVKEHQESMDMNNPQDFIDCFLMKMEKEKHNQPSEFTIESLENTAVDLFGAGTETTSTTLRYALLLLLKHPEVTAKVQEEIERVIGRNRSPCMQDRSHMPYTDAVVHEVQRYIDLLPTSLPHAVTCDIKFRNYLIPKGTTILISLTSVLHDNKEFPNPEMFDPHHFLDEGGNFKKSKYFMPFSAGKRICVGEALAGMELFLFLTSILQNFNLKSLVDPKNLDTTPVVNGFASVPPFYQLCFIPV
Chain of Cytochrome P450 3A4 (P08684 whole entry): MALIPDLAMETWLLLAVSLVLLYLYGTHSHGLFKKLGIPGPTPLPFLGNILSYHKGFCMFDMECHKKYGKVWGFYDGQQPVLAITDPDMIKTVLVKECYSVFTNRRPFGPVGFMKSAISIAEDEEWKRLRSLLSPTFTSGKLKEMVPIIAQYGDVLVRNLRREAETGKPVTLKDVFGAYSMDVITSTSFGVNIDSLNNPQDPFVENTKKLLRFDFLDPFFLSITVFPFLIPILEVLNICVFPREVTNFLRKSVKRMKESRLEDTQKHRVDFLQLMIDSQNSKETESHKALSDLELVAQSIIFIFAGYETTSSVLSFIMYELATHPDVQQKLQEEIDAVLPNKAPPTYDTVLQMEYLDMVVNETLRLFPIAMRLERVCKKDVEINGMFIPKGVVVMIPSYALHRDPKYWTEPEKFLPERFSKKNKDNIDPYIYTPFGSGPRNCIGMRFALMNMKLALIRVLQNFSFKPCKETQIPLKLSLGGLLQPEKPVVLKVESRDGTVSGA

CCOCCOC(=O)c1ccc(NC(=O)C2COc3ccccc3O2)cc1 (stereo not given)
IC50 (cells): 15.2 µM (active)

CCn1ncc2c(OCc3ccc(C#N)cc3)cc(C)nc21
EC50 [1]: 21.5 µM (active)
EC50 [2]: 24.9 µM (active)
EC50 [3]: 61.8 µM (active)

CC(C)NC(=O)N1CCCC2(CCN(C(=O)Oc3ccccc3)CC2)C1
AC50 (Cytochrome P450 1A2): 12.6 µM (inconclusive)
AC50 (Cytochrome P450 3A4): 25.1 µM (inconclusive)
AC50 (Cytochrome P450 2C9): 12.6 µM (inconclusive)

Nc1ccc(-n2nc3ccccc3n2)cc1
EC50 [1]: 31.8 µM (active)
EC50 [2]: 67 µM (active)
EC50 [3]: 5.68 µM (active)

COc1ccc(S(=O)(=O)N2CCCCCC2)cc1NC(=O)Cc1ccccc1F
EC50 [1]: 76.1 µM (active)
EC50 [2]: > 120 µM (not active)
EC50 [3]: > 120 µM (not active)

CC(C)(C)n1nc2c(c1NC(=O)Cc1ccccc1)CS(=O)(=O)C2
IC50 [4]: > 47.1 µM (inactive)
EC50 [5]: > 53 µM (inactive)

NS(=O)(=O)c1ccc(/N=N\c2ncccc2O)cc1
AC50 (Cytochrome P450 1A2): 2 µM (inconclusive)
AC50 (Cytochrome P450 3A4): 3.98 µM (inconclusive)
AC50 (Cytochrome P450 2C9): 6.31 µM (inconclusive)

O=C(NNc1nc2ccccc2s1)Nc1ccccc1
EC50 [6]: > 195 µM (not active)

Cc1cccc2cc(C#N)c(N3CCN(C)CC3)nc12
IC50 [4]: > 47.1 µM (inactive)
EC50 [5]: > 53 µM (inactive)

O=C(CCl)NC(Cc1ccccc1)c1ccccc1 (stereo not given)
EC50 [6]: 17.1 µM (active)

Cc1nc2c(sc3nc(N4CCOCC4)c4c(c32)CC(C)(C)OC4)c(-c2ccc(Cl)cc2)c1C(=O)O
EC50 [6]: > 195 µM (not active)

O=C(Nc1ccc(Cl)c(C(F)(F)F)c1)C1CCCN(S(=O)(=O)c2c[nH]cn2)C1 (stereo not given)
AC50 (Cytochrome P450 2C9): 0.501 µM (inconclusive)

C/C(=N\Nc1cccc2cccnc12)c1ccccn1
EC50 [7]: 2.51 µM (active)
EC50 [8]: > 60 µM (not active)
IC50 (cells): 13.8 µM (active)

Cn1c(=O)c2nc(N/N=C(/C#N)C(N)=O)[nH]c2n(C)c1=O
EC50 [9]: > 300 µM (not active)
EC50 [10]: 52.4 µM (active)

Cc1oc(/N=C/c2ccc(O)cc2O)c(C#N)c1C
EC50 [9]: > 300 µM (not active)
EC50 [10]: > 300 µM (not active)

CCO/C(C)=N/n1c2nc3ccccc3nc2c2c(=O)n(CC(C)C)c(C)nc21
AC50 (Cytochrome P450 2C9): 12.6 µM (inconclusive)

COc1ccc2c3c1O[C@H]1C[C@@H](O)C=C[C@@]31CCN(C)C2 [GALANTAMINE HYDROBROMIDE]
EC50 [1]: > 120 µM (not active)
EC50 [2]: > 120 µM (not active)
EC50 [3]: 11.1 µM (active)

— ChEMBL document CHEMBL1201862, “PubChem BioAssay data set” (2004)
